From patent US20120065152A1 (SHIRE LLC, priority 2010, published 2012)
Several values for one entry are separate records, joined by “and”; a condition that tells them apart may be missing. Equal values may be shown once. Where a name gives a salt, the structure may show the parent alone.

Columns and labels:
[1] = Stability studies on guanfacine prodrugs in buffers; assay type: physicochemical
[2] = DMSO, organic solvent or mixture, Solubility, in DMSO
[3] = pH 1.2, 37° C., 0.1M HCl/NaCl buffer, 1 h
[4] = pH 1.2, 37° C., 0.1M HCl/NaCl buffer, time 0
[5] = pH 3.0, 20° C., 0.1M citrate buffer, 2 h
[6] = pH 3.0, 20° C., 0.1M citrate buffer, time 0
[7] = pH 6.8, 37° C., 0.1M phosphate buffer, 2 h
[8] = pH 6.8, 37° C., 0.1M phosphate buffer, time 0
[9] = pH 7.4, 37° C., 0.1M phosphate buffer, 2 h
[10] = pH 7.4, 37° C., 0.1M phosphate buffer, time 0
[11] = DMSO, organic solvent or mixture
[12] = water/CH3CN (1:1), aqueous with cosolvent or surfactant or cyclodextrin, Solubility, in water/CH3CN (1:1)
[13] = pH 1.2, 37° C., 0.1M HCl/NaCl buffer, time 0, Hydrochloride
[14] = pH 6.8, 37° C., 0.1M phosphate buffer, 2 h, Hydrochloride
[15] = pH 7.4, 37° C., 0.1M phosphate buffer, 2 h, Hydrochloride

| solubility (Solubility; [2]) | solubility (Solubility; water, Solubility, in water) | Active drug [1, 3] | Active drug [1, 4] | Pro-drug [1, 4] | Active drug [1, 5] | Active drug [1, 6] | Pro-drug [1, 6] | Active drug [1, 7] | Active drug [1, 8] | Pro-drug [1, 8] | Active drug [1, 9] | Active drug [1, 10] | Pro-drug [1, 10] | SMILES | also measured |
| --- | --- | --- | --- | --- | --- | --- | --- | --- | --- | --- | --- | --- | --- | --- | --- |
| > 10000 µg/mL | < 1000 µg/mL | 0.0 | 0.0 | 100 | 0.0 | 0.0 | 100 | 0.0 | 0.0 | 100 | 0.0 | 0.0 | 100 | CC(C)[C@@H]1CC[C@@H](C)C[C@H]1OC(=O)NC(N)=NC(=O)Cc1c(Cl)cccc1Cl.Cl [Compound 29, 1-(R)-{N′-[2-(2,6-Dichloro-phenyl)-acetyl]-guanidinocarbonyloxy}-2-(S)-isopropyl-5-(R)-methyl-cyclohexane Hydrochloride] | solubility (Solubility; 2.5 mL CH3CN/1 mL H2O, aqueous with cosolvent or surfactant or cyclodextrin, Solubility, in 2.5 mL CH3CN/1 mL H2O): > 1430 µg/mL; Pro-drug ([1]; pH 1.2, 37° C., 0.1M HCl/NaCl buffer, 1 h, listed as Guanfacine-(−)-Menthyl Carbamate Hydrochloride, Hydrochloride): 94.6 and 95.5; Pro-drug ([1]; pH 3.0, 20° C., 0.1M citrate buffer, 2 h, listed as Guanfacine-(−)-Menthyl Carbamate Hydrochloride, Hydrochloride): 98.3 and 99.6; Pro-drug ([1]; pH 6.8, 37° C., 0.1M phosphate buffer, 2 h, listed as Guanfacine-(−)-Menthyl Carbamate Hydrochloride, Hydrochloride): 97.9 and 97.3; Pro-drug ([1]; pH 7.4, 37° C., 0.1M phosphate buffer, 2 h, listed as Guanfacine-(−)-Menthyl Carbamate Hydrochloride, Hydrochloride): 94.7 and 96.9 |
| – | – | – | – | – | – | – | – | – | – | – | – | – | – | Cl.N=C(NC(=O)Cc1c(Cl)cccc1Cl)NC(=O)Oc1cccc(C(=O)O)c1 [Compound 28, 3-[({[2-(2,6-dichlorophenyl)acetamido]methanimidoyl}carbamoyl)oxy]benzoic acid hydrochloride] | Solubility (in words) (Solubility): insoluble in water; solubility (Solubility; [11]): > 20000 µg/mL |
| > 10000 µg/mL | < 1000 µg/mL | 0.0 | 0.0 | 100 | 0.0 | 0.0 | 100 | 0.0 | 0.0 | 100 | 0.0 | 0.0 | 100 | CC(C)COC(=O)NC(N)=NC(=O)Cc1c(Cl)cccc1Cl.Cl [Compound 8, 1-{N′-[2-(2,6-Dichloro-phenyl)-acetyl]-guanidinocarbonyloxy}-2-methylpropane Hydrochloride] | solubility (Solubility; [12]): > 1000 µg/mL; Pro-drug ([1]; pH 1.2, 37° C., 0.1M HCl/NaCl buffer, 1 h, listed as Guanfacine Isobutyl Carbamate Hydrochloride, Hydrochloride): 95.1 and 95.0; Pro-drug ([1]; pH 3.0, 20° C., 0.1M citrate buffer, 2 h, listed as Guanfacine Isobutyl Carbamate Hydrochloride, Hydrochloride): 95.2 and 95.3; Pro-drug ([1]; pH 6.8, 37° C., 0.1M phosphate buffer, 2 h, listed as Guanfacine Isobutyl Carbamate Hydrochloride, Hydrochloride): 98.2 and 97.9; Pro-drug ([1]; pH 7.4, 37° C., 0.1M phosphate buffer, 2 h, listed as Guanfacine Isobutyl Carbamate Hydrochloride, Hydrochloride): 95.3 and 96.7 |
| > 10000 µg/mL | < 1000 µg/mL | – | – | – | – | – | – | – | – | – | – | – | – | NC(=NC(=O)Cc1c(Cl)cccc1Cl)NC(=O)OCc1ccccc1 [Compound 10, {N′-[2-(2,6-Dichloro-phenyl)-acetyl]guanidino-carbonyloxy}toluene Hydrochloride] | solubility (Solubility; CH3CN, organic solvent or mixture, Solubility, in CH3CN): > 5000 µg/mL |
| – | – | – | – | – | – | – | – | – | – | – | – | – | – | N=C(NC(=O)Cc1c(Cl)cccc1Cl)NC(=O)Oc1ccc(CC(=O)O)cc1 [Compound 25, Hydrochloride] | solubility (Solubility; [11]): > 23000 µg/mL; solubility (Solubility; water): < 2300 µg/mL |
| – | – | – | – | – | – | 0.0 | 100 | – | 0.0 | 100 | – | 0.0 | 100 | CC(C)(C)OC(=O)NC(=N)NC(=O)Cc1c(Cl)cccc1Cl.Cl [Guanfacine Tert-Butyl Carbamate Hydrochloride] | solubility (Solubility; in 2 mL CH3CN/1 mL H2O): > 5 mg; solubility (Solubility; in DMSO): > 10000 µg/mL; solubility (Solubility; in water): < 1000 µg/mL; Pro-drug [1, 3]: 0.0; Active drug ([1]; pH 1.2, 37° C., 0.1M HCl/NaCl buffer, 1 h, Hydrochloride): 99.7 and 100; Active drug [1, 13]: 8.8 and 9.5; Pro-drug [1, 13]: 91.2 and 90.5; Pro-drug [1, 5]: 34.5; Active drug ([1]; pH 3.0, 20° C., 0.1M citrate buffer, 2 h, Hydrochloride): 66.6 and 65.5; Active drug [1, 14]: 14.2 and 15.2; Pro-drug [1, 14]: 83.6 and 84.9; Active drug [1, 15]: 11.0 and 11.2; Pro-drug [1, 15]: 84.2 and 82.7 |
| – | – | 1.7 and 1.8 | 0.5 and 0.6 | 99.5 and 99.4 | 1.2 and 1.3 | 0.4 and 0.5 | 99.6 and 99.5 | 87.1 and 88.1 | 1.6 and 1.4 | 98.4 and 98.6 | 85.4 and 85.8 | – | 99.2 and 98.1 | N=C(NC(=O)Cc1c(Cl)cccc1Cl)NC(=O)OC[C@@H](N)Cc1cnc[nH]1.O=C(O)C(F)(F)F.O=C(O)C(F)(F)F.O=C(O)C(F)(F)F [Guanfacine-(S)-histidinyl carbamate Tri-trifluoroacetate] | solubility (Solubility; in DMSO): > 20000 µg/mL; solubility (Solubility; in water): > 20000 µg/mL; Pro-drug [1, 3]: 84.7 and 83.3; Pro-drug [1, 5]: 98.1 and 97.8; Pro-drug [1, 7]: 0.0; Pro-drug [1, 9]: 0.0 |
| > 10000 µg/mL | < 1000 µg/mL | 0.0 | 0.0 | 100 | 0.0 | 0.0 | 100 | 0.0 | 0.0 | 100 | 0.0 | 0.0 | 100 | [2H]C([2H])([2H])C([2H])([2H])OC(=O)NC(=N)NC(=O)Cc1c(Cl)cccc1Cl [Compound 13, {N′-[2-(2,6-Dichloro-phenyl)-acetyl]-guanidinocarbonyloxy} d5-ethane] | Pro-drug ([1]; pH 1.2, 37° C., 0.1M HCl/NaCl buffer, 1 h, listed as Guanfacine D5-Ethyl Carbamate): 97.6 and 96.6; Pro-drug ([1]; pH 3.0, 20° C., 0.1M citrate buffer, 2 h, listed as Guanfacine D5-Ethyl Carbamate): 98.7 and 98.3; Pro-drug ([1]; pH 6.8, 37° C., 0.1M phosphate buffer, 2 h, listed as Guanfacine D5-Ethyl Carbamate): 99.4 and 99.2; Pro-drug ([1]; pH 7.4, 37° C., 0.1M phosphate buffer, 2 h, listed as Guanfacine D5-Ethyl Carbamate): 99.4 and 99.2 |
| > 10000 µg/mL | < 1000 µg/mL | 0.6 | 0.0 | 100 | 0.0 | 0.0 | 100 | 0.0 | 0.0 | 100 | 0.0 | 0.0 | 100 | Cl.NC(=NC(=O)Cc1c(Cl)cccc1Cl)NC(=O)OCC1CC1 [Compound 31, {N′-[2-(2,6-Dichloro-phenyl)acetyl]-guanidino-carbonyloxy}methylcyclopropane Hydrochloride] | solubility (Solubility; [12]): > 5000 µg/mL; Pro-drug ([1]; pH 1.2, 37° C., 0.1M HCl/NaCl buffer, 1 h, listed as Guanfacine Cyclopropylmethyl Carbamate Hydrochloride, Hydrochloride): 92.9 and 92.7; Pro-drug ([1]; pH 3.0, 20° C., 0.1M citrate buffer, 2 h, listed as Guanfacine Cyclopropylmethyl Carbamate Hydrochloride, Hydrochloride): 98.3 and 98.5; Pro-drug ([1]; pH 6.8, 37° C., 0.1M phosphate buffer, 2 h, listed as Guanfacine Cyclopropylmethyl Carbamate Hydrochloride, Hydrochloride): 97.6 and 97.4; Pro-drug ([1]; pH 7.4, 37° C., 0.1M phosphate buffer, 2 h, listed as Guanfacine Cyclopropylmethyl Carbamate Hydrochloride, Hydrochloride): 99.6 and 99.5 |
| > 10000 µg/mL | < 1000 µg/mL | 0.0 | 0.0 | 100 | 0.0 | 0.0 | 100 | 0.0 | 0.0 | 100 | 0.0 | 0.0 | 100 | CC(C)(C)COC(=O)NC(N)=NC(=O)Cc1c(Cl)cccc1Cl.Cl [Compound 9, 1-{N′[2-(2,6-Dichloro-phenyl)-acetyl]guanidinocarbonyloxy}-2,2-dimethylpropane Hydrochloride] | solubility (Solubility; [12]): > 1000 µg/mL; Pro-drug ([1]; pH 1.2, 37° C., 0.1M HCl/NaCl buffer, 1 h, listed as Guanfacine Neopentyl Carbamate Hydrochloride, Hydrochloride): 94.7 and 93.9; Pro-drug ([1]; pH 3.0, 20° C., 0.1M citrate buffer, 2 h, listed as Guanfacine Neopentyl Carbamate Hydrochloride, Hydrochloride): 96.1 and 96.8; Pro-drug ([1]; pH 6.8, 37° C., 0.1M phosphate buffer, 2 h, listed as Guanfacine Neopentyl Carbamate Hydrochloride, Hydrochloride): 98.3 and 97.9; Pro-drug ([1]; pH 7.4, 37° C., 0.1M phosphate buffer, 2 h, listed as Guanfacine Neopentyl Carbamate Hydrochloride, Hydrochloride): 99.2 and 98.5 |
| – | – | – | – | – | – | – | – | – | – | – | – | – | – | CO[C@H]1O[C@H](COC(=O)NC(=N)NC(=O)Cc2c(Cl)cccc2Cl)[C@@H](O)[C@H](O)[C@H]1O.Cl [Compound 16, 2-(2,6-dichlorophenyl)-N-(N-((((2R,3S,4S,5R,6S)-3,4,5-trihydroxy-6-methoxytetrahydro-2H-pyran-2-yl)methoxy)carbonyl)carbamimidoyl)acetamide hydrochloride] | Solubility (in words) (Solubility): water, DMSO |
